One series concerns N. caninum tachyzoites. The series can be described thus: N. caninum-β-gal tachyzoite proliferation in HFF, 3 days. As to conditions: Neospora caninum, read-out: EC50 N. caninum. Type of series: cell-based. As to the method: Transgenic N. caninum tachyzoites expressing beta-galactosidase under a constitutive promoter (N. caninum-β-gal) were grown in Vero cells and were separated from host cell components as previously described. Human foreskin fibroblasts (HFF) at 5×10^3 cells per well in phenol-red free culture medium were incubated at 37°C with 5% CO2 and were grown to confluence in a 96-well plate. […] Cultures were infected with N. caninum-β-gal tachyzoites (1×10^3 per well). After three days at 37°C/5% CO2, plates were centrifuged at 500 g, medium was removed, and cell cultures were lysed in PBS containing 0.05% Triton-X-100. After addition of 10 μL of 5 mM chlorophenol red-b-D-galactopyranoside (CPRG; Roche Diagnostics, Rotkreuz, Switzerland) dissolved in PBS, the absorption shift was measured at 570 nm wavelength at various time points on a VersaMax multiplate reader (Bucher Biotec, Basel, Switzerland). The activity, measured as the release of chlorophenol red over time, was proportional to the number of life parasites down to 50 per well as determined in pilot assays. EC50 values were calculated after the logit-log-transformation of relative growth and subsequent regression analysis by the corresponding software tool contained in the Excel software package (Microsoft, Seattle, WA).

Another series deals with T. gondii. As to conditions: cited from earlier work.
A further series has as its target recombinant NcCDPK1 (Neospora caninum, UniProt F0V9W9). The series can be described thus: biochemical. As to the method:
Protein kinase activity of recombinant NcCDPK1 and inhibition of its kinase phosphorylation properties by BKIs was measured in a non-radioactive assay using Kinase-Glo luciferase reagent (Promega, Madison, WI). This luminescence based assay measures kinase activity in the presence or absence of inhibitors by reporting changes in initial ATP concentration after NcCDPK1 phosphorylation of biotinylated Syntide-2 peptide substrate (Biotin-C6-[…]) (BioSyntide-2) (American Peptide Company, Inc. Sunnyvale, CA), [40]. […] The reaction was initiated by the addition of 10 μM ATP and incubated for 90 minutes at 30°C. Changes in initial ATP concentration was evaluated as a luminescence readout using a MicroBeta2 multi-label plate reader (Perkin Elmer, Waltham, MA).

Series [1] relates to N. caninum tachyzoites in HFF. The series can be described thus: Host cell invasion assay, BKI treatment pre- and post-infection (β-galactosidase). Type of series: cell-based, Neospora caninum. As to the method:
Control wells with equal volume of DMSO were also included per reaction plate. Two hours after initiating the experiment, the cells were washed. Selected untreated assay plates were treated with 1294 for 60 minutes after the initial wash with medium. All the assay plates were incubated for one hour before a final wash and reading the beta-galactosidase activity.

The next series relates to N. caninum. The series can be described thus: N. caninum infected Balb/c mice, cerebral parasite load by real time PCR. Format: in vivo. Background: Quantitative PCR measures a nucleic acid by following its amplification.
The subject of the next series is Cryptosporidium parvum. On the set-up: method as in PMID 23878324. The conditions noted are these: in vitro and in vivo; cited from earlier work.
The subject of another series is malaria transmission. More on the design: method as in PMID 24123773. The conditions noted are these: cited from earlier work.
For series [2] the following is noted: cited from earlier work.
[3] abbreviates: 72 h, concentration that inhibits cell growth by 50%, tachyzoites in HFF, 3 days.
Where [4] appears, read: concentration that inhibits protein kinase activity by 50%, 10 μM ATP, 40 μM BioSyntide-2, 3.3 nM enzyme, read-out: IC50 NcCDPK1.

Like-named read-outs stand apart in the source and are kept apart here.

In general, EC50 refers to the concentration needed to bring the measured effect to its halfway point. The term IC50 denotes the concentration that gives 50% inhibition.

recombinant NcCDPK1, sequence (F0V9W9 entry or part of it): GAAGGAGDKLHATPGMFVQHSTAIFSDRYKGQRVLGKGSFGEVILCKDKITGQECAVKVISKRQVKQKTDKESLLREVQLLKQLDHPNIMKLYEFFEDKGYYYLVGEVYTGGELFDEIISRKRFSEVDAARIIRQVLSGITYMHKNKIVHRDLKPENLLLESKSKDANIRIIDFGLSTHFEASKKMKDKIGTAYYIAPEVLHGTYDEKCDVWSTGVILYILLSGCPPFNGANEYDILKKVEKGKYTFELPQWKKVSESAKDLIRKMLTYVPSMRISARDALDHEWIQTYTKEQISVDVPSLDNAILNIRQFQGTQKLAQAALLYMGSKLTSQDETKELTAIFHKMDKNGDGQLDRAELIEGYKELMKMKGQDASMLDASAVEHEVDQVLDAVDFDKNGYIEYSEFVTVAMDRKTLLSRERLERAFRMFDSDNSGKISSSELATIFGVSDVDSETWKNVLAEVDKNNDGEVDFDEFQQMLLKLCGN

Consider `CCOc1ccc2cc(-c3nn(CC4CCNCC4)c4ncnc(N)c34)ccc2c1` [15n], for which the EC50 was 50 nM in the series with N. caninum tachyzoites (setting [3]) and 52 nM in the series with T. gondii.
Take `CCOc1ccc2cc(-c3nn(C4CCN(C)CC4)c4ncnc(N)c34)ccc2c1` [15h]: the IC50 on recombinant NcCDPK1 (setting [4]) turned out to be 1.4 nM. The EC50 is 55 nM in the series on N. caninum tachyzoites (setting [3]) and 50 nM in the series with T. gondii.
With `CCOc1ccc2cc(-c3nn(CC4CCN(C)CC4)c4ncnc(N)c34)ccc2c1` [compound 1294], the IC50 at recombinant NcCDPK1 was 2.6 nM. The EC50 with N. caninum tachyzoites (HFF-3, 72 h) was 32 nM; with T. gondii it was 137 nM. Besides, the “beta-galactosidase activity (host cell invasion)” value was “no difference” in series [1] (5 μM added after the infection phase of 2 hours, p>0.2); “no significant difference” in series [1] (5 μM added at 60, 90 and 115 minutes after initiation of infection); “significant decrease” in series [1] (5 μM added at initiation of HFF infection, 2 hours, vs 1266 or DMSO, p<0.001). Besides, the “cerebral parasite load vs placebo group” value in the series with N. caninum (group B: 50 mg/kg oral daily from day 3 post infection for 5 days, P = 0.0139) is “tendency towards reduced parasite load”; in the series with N. caninum (group C: 50 mg/kg oral daily from day 3 post infection for 10 days, P = 0.0047) it was “clearly the most effective”. The “reduction of cerebral parasite burden compared to untreated control” value in the series with N. caninum (oral 50 mg/kg for 5 days, established murine neosporosis) was found to be 10 fold. Besides, the “activity against Cryptosporidium parvum cell growth” value in the series with Cryptosporidium parvum was “profound in vitro and in vivo activity”. The malaria transmission blocking result in the series on malaria transmission is reported as “excellent malaria transmission blocking properties”. Besides, the pharmacokinetic data result in series [2] is given as “favorable absorption with low clearance”. Further, the “toxicity in mammalian cells and rodents” value in series [2] (in vivo) is recorded as “low toxicity”.
With `CCOc1ccc2cc(-c3nn(C4CCN(CC)CC4)c4ncnc(N)c34)ccc2c1` [15i], the IC50 on recombinant NcCDPK1 (setting [4]) is 2.3 nM. Also, the EC50 in the series on N. caninum tachyzoites (setting [3]) is 99 nM; in the series on T. gondii, 90 nM.
Consider `CCOc1ccc2cc(-c3nn(CC4CCOCC4)c4ncnc(N)c34)ccc2n1` [compound 1412], for which, on recombinant NcCDPK1 (setting [4]), the IC50 turned out to be 2 nM. In addition, in the series on N. caninum tachyzoites (setting [3]), the EC50 was 119 nM.
On to `CC(C)(C)n1nc(-c2ccc3ccccc3c2)c2c(N)ncnc21` [11b], for which the IC50 at recombinant NcCDPK1 (setting [4]) worked out at 1.7 nM. The figures for the EC50 in the series with N. caninum tachyzoites (setting [3]) and in the series with T. gondii were 140 nM and 347 nM, respectively.
Take `CCOc1ccc2cc(-c3nn(CC4CCNCC4)c4ncnc(N)c34)ccc2n1` [16n]: the IC50 on recombinant NcCDPK1 (setting [4]) was found to be 1.7 nM. Further, the EC50 in the series with N. caninum tachyzoites (setting [3]) was determined as 49 nM.

Values taken from PMC3969379, “Neospora caninum Calcium-Dependent Protein Kinase 1 Is an Effective Drug Target for Neosporosis Therapy” (PLoS ONE, 2014).
